Laboratory results taken from US8415469B2, “Compounds and methods for kinase modulation, and indications therefor” (Plexxikon Inc., priority 2005, dated 2013).

What was measured:
Type in all cases: biochemical
Stk6 = molecular target: T1, Stk6 (Homo sapiens, UniProt O14965); assay: Z'-Lyte FRET kinase assay (Invitrogen), Stk6; details: read-out: IC50, activity toward kinase Stk6
T1 construct: purchased Invitrogen (Carlsbad, Calif.), screening service
T1 sequence (O14965 1-403): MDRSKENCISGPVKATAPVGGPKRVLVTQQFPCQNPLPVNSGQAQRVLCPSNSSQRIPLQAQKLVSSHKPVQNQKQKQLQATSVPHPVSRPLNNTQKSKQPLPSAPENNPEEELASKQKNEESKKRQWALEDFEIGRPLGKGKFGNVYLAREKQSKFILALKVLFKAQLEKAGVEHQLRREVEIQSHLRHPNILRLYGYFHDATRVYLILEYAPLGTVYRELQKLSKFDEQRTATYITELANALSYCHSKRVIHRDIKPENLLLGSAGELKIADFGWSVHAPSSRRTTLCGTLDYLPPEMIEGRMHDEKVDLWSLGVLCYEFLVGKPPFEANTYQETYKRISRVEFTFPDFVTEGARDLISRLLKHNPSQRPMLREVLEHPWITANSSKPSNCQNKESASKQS

Kdr = molecular target: T2, Kdr (Homo sapiens, UniProt P35968); assay: Z'-Lyte FRET kinase assay (Invitrogen), Kdr; details: read-out: IC50, activity toward kinase Kdr
T2 construct: purchased Invitrogen (assay run by Invitrogen)
T2 sequence (P35968 20-1356): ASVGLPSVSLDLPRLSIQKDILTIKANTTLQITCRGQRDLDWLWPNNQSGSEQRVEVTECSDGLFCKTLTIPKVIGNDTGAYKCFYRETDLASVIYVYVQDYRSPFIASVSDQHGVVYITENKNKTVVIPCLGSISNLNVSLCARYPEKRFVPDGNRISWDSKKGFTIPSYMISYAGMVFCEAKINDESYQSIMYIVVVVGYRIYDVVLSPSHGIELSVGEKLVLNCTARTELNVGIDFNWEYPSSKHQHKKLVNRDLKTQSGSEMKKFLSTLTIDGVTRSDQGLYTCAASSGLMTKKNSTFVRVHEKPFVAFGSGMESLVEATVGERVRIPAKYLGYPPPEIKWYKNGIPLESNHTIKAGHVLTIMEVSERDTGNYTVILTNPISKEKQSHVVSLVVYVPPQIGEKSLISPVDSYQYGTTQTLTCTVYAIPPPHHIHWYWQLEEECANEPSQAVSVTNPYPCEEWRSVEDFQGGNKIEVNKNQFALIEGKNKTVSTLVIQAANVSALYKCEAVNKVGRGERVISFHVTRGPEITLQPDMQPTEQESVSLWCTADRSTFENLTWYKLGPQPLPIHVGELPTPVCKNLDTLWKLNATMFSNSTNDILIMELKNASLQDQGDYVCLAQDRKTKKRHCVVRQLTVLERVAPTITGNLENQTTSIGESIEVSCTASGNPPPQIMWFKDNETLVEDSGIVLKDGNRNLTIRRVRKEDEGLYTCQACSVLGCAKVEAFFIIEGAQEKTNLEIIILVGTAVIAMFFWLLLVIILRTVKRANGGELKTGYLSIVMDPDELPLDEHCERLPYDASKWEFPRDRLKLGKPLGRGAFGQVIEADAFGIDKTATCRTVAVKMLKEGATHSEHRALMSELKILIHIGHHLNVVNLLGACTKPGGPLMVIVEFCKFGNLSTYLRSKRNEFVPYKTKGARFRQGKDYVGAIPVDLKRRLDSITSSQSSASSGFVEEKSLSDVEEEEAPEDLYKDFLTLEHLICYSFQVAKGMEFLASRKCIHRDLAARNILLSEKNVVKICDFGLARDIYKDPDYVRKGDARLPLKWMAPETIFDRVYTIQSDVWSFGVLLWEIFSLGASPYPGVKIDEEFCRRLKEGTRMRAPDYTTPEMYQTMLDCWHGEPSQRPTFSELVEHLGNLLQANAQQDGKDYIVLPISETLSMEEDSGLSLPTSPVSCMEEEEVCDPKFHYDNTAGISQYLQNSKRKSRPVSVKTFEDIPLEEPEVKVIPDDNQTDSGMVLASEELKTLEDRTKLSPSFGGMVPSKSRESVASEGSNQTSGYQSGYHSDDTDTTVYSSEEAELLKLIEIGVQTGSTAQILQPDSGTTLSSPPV

MAPKAPK2 = molecular target: T3, MAPKAPK2 (Homo sapiens, UniProt P49137); assay: Z'-Lyte FRET kinase assay (Invitrogen), MAPKAPK2; details: read-out: IC50, activity toward kinase MAPKAPK2
T3 construct: purchased Invitrogen (assay run by Invitrogen)
Source text: The effect of potential modulators of kinase activity can be measured in a variety of different assays known in the art. For example, direct radiometric, indirect FRET or AlphaScreen assays may be used to assess the level of phosphorylation of a substrate in the presence of test compounds in order to determine the inhibitory affect of the compound on the kinase. Invitrogen (Carlsbad, Calif.) uses a FRET based assay for Btk, EGFR, EphB2, Flt3, lrak4, Kdr, MAP2K1, MAPKAPK2, PDGFRB, PKC theta, Stk6 and Yes. For these assays, compounds of the invention were screened by Invitrogen using Z′-Lyte™ kinase assay.
Briefly, the Invitrogen kinase assay involves use of a specific peptide substrate optimized for each kinase, containing a fluorophore at each end that make up the FRET pair. The peptide sensitivity to proteolytic cleavage depends on phosphorylation of the peptide. Non-phosphorylated peptide is cleaved by a protease while peptide phosphorylated by the kinase is not cleaved. Cleavage of the peptide disrupts the FRET between the donor (coumarin) and acceptor (fluorescein) fluorophores, resulting in an increase in the ratio of donor emission to acceptor emission. The emission ratio of coumarin to fluorescein is used to assess the reaction progress. The extent of phosphorylation is determined from the emission ratio, which is low when the kinase is active (phosphorylated peptide is not cleaved, FRET pair connected) or higher for inhibited kinase (non-phosphorylated peptide is cleaved, FRET pair separated). Thus, the assay involves a kinase reaction in the presence of varying concentrations of a given compound, a development reaction with site specific protease, and detection of the fluorescent emission ratio of coumarin and fluorscein. […] Reaction conditions for each kinase are determined to provide optimal reaction times, incubation temperature, kinase and ATP concentrations. Test samples are made up in 1× kinase buffer (50 mM HEPES pH 7.5, 50 mM MgCl2, 5 mM EGTA, 0.05% BRIJ-35) and compound at desired concentration prepared in DMSO such that the final DMSO is 1%. […] Typically, assay plates are prepared to 10 μl final volume per sample, adding 2.5 μl of compound at 4× the desired concentration in 4% DMSO (serial dilution of compound provides concentration curve), 5 μl of the desired kinase mixed with Z′-LYTE™ peptide substrate (2× in 2× kinase buffer, final peptide at 2 μM), and 2.5 μl of 4×ATP solution. All kinase except for MAP2K1 were at 10 μM ATP in the kinase reaction, while MAP2K1 was at 100 μM. Samples are mixed and the kinase reaction is incubated 1 hour at room temperature, after which 5 μl of development solution is added and mixed. After incubation for another 1 hour at room temperature, 5 μl of stop reagent is added to each sample and mixed. The fluorescence signals are measured to determine the emission ratio.

Ret = molecular target: T4, Ret (Homo sapiens, UniProt P07949); assay: AlphaScreen kinase assay, Ret; details: read-out: IC50, activity toward kinase Ret
T4 construct: P1378.pET-SF BI-PTP RET H661-R1012 HIS; made in house
T4 sequence (P07949 with tags, fused parts or gaps): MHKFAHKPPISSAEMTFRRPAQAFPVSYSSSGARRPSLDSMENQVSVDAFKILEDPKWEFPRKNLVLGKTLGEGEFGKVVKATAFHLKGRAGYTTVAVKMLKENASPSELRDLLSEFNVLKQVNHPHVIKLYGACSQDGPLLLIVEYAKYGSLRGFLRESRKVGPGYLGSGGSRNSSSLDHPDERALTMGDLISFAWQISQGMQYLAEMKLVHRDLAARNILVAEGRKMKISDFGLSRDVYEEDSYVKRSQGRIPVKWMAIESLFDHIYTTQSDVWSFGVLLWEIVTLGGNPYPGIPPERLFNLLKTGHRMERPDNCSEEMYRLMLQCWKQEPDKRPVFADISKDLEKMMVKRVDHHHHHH

B-Raf V600E = molecular target: T5, B-Raf V600E (Homo sapiens, UniProt P15056, V600E); assay: AlphaScreen kinase assay, B-Raf V600E; details: read-out: IC50, activity toward kinase B-Raf V600E
T5 construct: P4254. pFastBacBD-CDC37 BRAF D437-K722-X, V600E; His6 with pFastBac HT leader (TEV site) (N); made in house; host or cells: Sf9 (baculovirus; chaperone CDC37 co-expressed)
T5 sequence (P15056 with tags, fused parts or gaps V600E): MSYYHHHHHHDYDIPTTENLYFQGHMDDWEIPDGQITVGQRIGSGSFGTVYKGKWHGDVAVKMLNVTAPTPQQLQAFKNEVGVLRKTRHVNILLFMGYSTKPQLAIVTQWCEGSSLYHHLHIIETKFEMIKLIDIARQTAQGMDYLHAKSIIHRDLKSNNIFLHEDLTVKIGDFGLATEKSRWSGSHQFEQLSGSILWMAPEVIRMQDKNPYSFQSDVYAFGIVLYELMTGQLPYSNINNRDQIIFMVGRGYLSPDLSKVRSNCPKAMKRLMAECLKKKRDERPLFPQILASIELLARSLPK

Syk = Syk (Homo sapiens, UniProt P43405); assay: AlphaScreen kinase assay, Syk; details: read-out: IC50, activity toward kinase Syk
Source text: AlphaScreen assay was used to screen additional kinases. The assay is similarly dependent on the phosphorylation of a peptide substrate. In this assay, an antibody that recognizes phosphorylated substrate is bound to an acceptor bead. The peptide substrate is attached to biotin, which binds to a donor head that contains streptavidin. Thus phosphorylated substrate is bound by antibody and streptavidin, bringing the donor and acceptor heads into close proximity when kinase is not inhibited. The donor produces singlet oxygen which results in emission from the acceptor when they are in close proximity. Conversely, when kinase is inhibited, the donor and acceptor beads are not associated and the emission from the acceptor is reduced.
AlphaScreen assays were done using compounds dissolved in DMSO to a concentration of 20 mM. The compounds were diluted accordingly to the desired final concentrations in each sample well, using 1:3 serial dilution for a total of 8 concentration points.

Jnk3 = molecular target: T6, Jnk3 (Homo sapiens, UniProt P53779); assay: AlphaScreen kinase assay, Jnk3; details: read-out: IC50, activity toward kinase Jnk3
T6 construct: purchased Upstate Biotechnology
T6 sequence (P53779 whole entry): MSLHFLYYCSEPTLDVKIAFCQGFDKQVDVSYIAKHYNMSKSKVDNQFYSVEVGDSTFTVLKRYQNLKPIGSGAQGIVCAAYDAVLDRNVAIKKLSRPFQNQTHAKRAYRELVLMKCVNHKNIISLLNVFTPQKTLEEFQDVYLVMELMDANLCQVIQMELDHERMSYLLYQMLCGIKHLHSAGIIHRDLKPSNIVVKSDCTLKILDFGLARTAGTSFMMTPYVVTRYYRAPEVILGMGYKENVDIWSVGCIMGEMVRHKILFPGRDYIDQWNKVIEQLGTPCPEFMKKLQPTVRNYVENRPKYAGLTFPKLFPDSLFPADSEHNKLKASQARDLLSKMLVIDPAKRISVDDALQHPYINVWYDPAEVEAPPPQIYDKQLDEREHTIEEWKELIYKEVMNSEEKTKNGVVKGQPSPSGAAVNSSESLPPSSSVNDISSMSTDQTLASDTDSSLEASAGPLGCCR

Btk = molecular target: T7, Btk (Homo sapiens, UniProt Q06187); assay: Z'-Lyte FRET kinase assay (Invitrogen), Btk; details: read-out: IC50, activity toward kinase Btk
T7 construct: purchased Invitrogen (assay run by Invitrogen)

FGFR1 = molecular target: T8, FGFR1 (Homo sapiens, UniProt P11362, C488A/C584S); assay: AlphaScreen kinase assay, FGFR1; details: read-out: IC50, activity toward kinase FGFR
T8 construct: P1351.pET N6 BI-PTP FGFR A458-E765-X C488A, C584S; made in house; host or cells: E. coli (PTP1B co-expressed)
T8 sequence (P11362 458-765 C488A/C584S): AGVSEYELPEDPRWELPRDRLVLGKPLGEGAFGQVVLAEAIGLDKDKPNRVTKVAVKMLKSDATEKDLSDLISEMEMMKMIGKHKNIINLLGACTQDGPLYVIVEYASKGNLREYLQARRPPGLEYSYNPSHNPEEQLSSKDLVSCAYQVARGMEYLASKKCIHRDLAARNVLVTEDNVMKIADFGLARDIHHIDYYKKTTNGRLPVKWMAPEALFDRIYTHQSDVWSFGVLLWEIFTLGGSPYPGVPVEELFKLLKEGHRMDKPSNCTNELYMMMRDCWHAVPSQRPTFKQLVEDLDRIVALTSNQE

Jnk2 = molecular target: T9, Jnk2 (Homo sapiens, UniProt P45984); assay: AlphaScreen kinase assay, Jnk2; details: read-out: IC50, activity toward kinase Jnk2
T9 construct: purchased Roche Protein Expression Group (Indianapolis, IN)
T9 sequence (P45984 whole entry): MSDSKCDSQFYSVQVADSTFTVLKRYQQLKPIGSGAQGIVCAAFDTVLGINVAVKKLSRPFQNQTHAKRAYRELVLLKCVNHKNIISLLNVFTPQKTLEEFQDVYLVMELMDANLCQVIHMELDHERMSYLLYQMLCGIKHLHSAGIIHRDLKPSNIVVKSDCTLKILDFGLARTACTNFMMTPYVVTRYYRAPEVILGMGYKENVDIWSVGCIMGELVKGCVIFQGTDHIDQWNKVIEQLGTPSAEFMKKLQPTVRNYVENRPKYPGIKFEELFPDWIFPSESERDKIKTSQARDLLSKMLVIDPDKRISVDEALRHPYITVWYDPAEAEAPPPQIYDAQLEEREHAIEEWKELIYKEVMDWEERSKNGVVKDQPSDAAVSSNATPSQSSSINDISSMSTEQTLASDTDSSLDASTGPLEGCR
Procedure, shortened: (§1)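 Biotinylated peptide substrate phosphorylation detected by AlphaScreen with phospho-specific antibody acceptor beads and streptavidin donor beads. Compounds tested as 8-point 1:3 serial dilutions from 20 mM DMSO stocks.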

Jnk1 = molecular target: T10, Jnk1 (Homo sapiens, UniProt P45983); assay: AlphaScreen kinase assay, Jnk1; details: read-out: IC50, activity toward kinase Jnk1
T10 construct: purchased Upstate Biotechnology
T10 sequence (P45983 whole entry): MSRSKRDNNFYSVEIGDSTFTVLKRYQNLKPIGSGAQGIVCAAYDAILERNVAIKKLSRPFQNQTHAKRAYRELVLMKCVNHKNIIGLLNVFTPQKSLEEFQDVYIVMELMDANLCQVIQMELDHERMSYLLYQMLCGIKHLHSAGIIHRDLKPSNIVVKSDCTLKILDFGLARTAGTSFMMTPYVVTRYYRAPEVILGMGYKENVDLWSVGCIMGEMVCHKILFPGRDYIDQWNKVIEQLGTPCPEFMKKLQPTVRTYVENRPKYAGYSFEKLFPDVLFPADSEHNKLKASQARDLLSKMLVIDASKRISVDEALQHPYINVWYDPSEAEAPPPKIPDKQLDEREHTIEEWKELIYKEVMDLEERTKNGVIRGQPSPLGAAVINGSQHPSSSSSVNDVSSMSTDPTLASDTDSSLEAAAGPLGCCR

Flt4 = molecular target: T11, Flt4 (Homo sapiens, UniProt P35916); assay: AlphaScreen kinase assay, Flt4; details: read-out: IC50, activity toward kinase Flt4
T11 construct: purchased ProQinase GmbH (Freiburg, Germany)
Procedure, shortened: as §1

Abl = molecular target: T12, Abl (Homo sapiens, UniProt P00519); assay: AlphaScreen kinase assay, Abl; details: read-out: activity toward kinase Abl, IC50
T12 construct: P1121. pET-SPEC BI-PTP Abl G227-V515-X; His6 (N); made in house; host or cells: E. coli (PTP1B co-expressed)
T12 sequence (P00519 with tags, fused parts or gaps): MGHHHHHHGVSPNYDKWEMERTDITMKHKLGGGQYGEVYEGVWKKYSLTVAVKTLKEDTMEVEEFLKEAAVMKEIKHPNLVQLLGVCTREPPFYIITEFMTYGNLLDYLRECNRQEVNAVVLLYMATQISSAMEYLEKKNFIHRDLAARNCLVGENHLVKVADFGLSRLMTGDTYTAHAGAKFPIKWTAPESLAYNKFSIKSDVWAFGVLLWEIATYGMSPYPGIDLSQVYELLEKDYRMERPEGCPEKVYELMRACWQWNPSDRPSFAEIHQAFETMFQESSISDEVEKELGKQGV
Procedure, shortened: as §1

Src = molecular target: T13, Src (Homo sapiens, UniProt P12931); assay: AlphaScreen kinase assay, Src; details: read-out: IC50, activity toward kinase Src
T13 construct: P1144. pET-N6 BI-PTP SRC V86-L536-X; made in house
T13 sequence (P12931 with tags, fused parts or gaps): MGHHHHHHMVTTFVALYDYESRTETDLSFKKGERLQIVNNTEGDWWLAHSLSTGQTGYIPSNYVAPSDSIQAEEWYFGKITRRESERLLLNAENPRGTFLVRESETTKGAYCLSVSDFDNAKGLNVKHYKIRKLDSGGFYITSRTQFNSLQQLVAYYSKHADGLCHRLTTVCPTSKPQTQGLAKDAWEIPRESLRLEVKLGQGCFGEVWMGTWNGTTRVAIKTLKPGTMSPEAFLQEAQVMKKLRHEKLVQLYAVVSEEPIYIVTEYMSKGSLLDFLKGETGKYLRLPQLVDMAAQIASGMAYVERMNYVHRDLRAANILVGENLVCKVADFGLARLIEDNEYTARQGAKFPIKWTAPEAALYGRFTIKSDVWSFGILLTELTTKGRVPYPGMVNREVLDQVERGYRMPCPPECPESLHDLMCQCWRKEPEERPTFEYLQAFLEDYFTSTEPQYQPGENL

B-Raf = molecular target: T14, B-Raf (Homo sapiens, UniProt P15056); assay: AlphaScreen kinase assay, B-Raf; details: read-out: IC50, activity toward kinase B-Raf
T14 construct: purchased Upstate Biotechnology
T14 sequence (P15056 whole entry): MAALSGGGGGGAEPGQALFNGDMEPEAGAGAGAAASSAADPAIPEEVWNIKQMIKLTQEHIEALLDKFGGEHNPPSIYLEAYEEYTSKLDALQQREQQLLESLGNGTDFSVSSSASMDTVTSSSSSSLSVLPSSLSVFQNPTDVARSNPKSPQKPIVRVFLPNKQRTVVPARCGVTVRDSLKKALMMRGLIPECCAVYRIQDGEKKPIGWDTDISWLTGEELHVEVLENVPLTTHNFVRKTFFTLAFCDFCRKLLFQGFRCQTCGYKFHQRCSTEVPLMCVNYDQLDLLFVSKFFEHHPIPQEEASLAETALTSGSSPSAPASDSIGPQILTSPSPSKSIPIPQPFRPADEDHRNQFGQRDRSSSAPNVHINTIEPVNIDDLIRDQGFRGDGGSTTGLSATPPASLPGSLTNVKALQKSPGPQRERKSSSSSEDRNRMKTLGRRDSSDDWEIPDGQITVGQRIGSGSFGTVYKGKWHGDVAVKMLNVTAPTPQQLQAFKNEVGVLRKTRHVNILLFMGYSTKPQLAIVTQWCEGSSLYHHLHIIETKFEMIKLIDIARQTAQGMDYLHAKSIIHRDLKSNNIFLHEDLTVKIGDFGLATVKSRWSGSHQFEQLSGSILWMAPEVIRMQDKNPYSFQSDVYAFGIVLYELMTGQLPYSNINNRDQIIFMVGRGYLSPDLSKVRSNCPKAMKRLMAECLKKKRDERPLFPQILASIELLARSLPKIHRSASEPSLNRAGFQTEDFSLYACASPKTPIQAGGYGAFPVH

Kit = molecular target: T15, Kit (Homo sapiens, UniProt P10721); assay: AlphaScreen kinase assay, Kit; details: read-out: IC50, activity toward kinase Kit
T15 construct: P1332.N6 BI PTP KIT M552-K948-X COD; His6 (N); made in house; host or cells: E. coli (PTP1B co-expressed)
T15 sequence (P10721 with tags, fused parts or gaps): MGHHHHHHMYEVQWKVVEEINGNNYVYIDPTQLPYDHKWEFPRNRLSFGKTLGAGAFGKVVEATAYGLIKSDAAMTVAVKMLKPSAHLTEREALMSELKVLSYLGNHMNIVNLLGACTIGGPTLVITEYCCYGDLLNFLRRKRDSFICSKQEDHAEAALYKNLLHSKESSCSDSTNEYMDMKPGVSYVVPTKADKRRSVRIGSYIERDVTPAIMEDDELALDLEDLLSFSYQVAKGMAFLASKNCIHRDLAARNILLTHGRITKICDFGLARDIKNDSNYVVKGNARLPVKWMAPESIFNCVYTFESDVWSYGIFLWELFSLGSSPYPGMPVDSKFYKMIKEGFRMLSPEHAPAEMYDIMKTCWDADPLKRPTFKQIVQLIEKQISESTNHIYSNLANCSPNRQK

Flt1 = molecular target: T16, Flt1 (Homo sapiens, UniProt P17948); assay: AlphaScreen kinase assay, Flt1; details: read-out: IC50, activity toward kinase Flt1
T16 construct: P1826.pETN6 BI-PTP FLT1 M799-D1165-X WT; His6 (N); made in house; host or cells: E. coli (PTP1B co-expressed)
T16 sequence (P17948 with tags, fused parts or gaps): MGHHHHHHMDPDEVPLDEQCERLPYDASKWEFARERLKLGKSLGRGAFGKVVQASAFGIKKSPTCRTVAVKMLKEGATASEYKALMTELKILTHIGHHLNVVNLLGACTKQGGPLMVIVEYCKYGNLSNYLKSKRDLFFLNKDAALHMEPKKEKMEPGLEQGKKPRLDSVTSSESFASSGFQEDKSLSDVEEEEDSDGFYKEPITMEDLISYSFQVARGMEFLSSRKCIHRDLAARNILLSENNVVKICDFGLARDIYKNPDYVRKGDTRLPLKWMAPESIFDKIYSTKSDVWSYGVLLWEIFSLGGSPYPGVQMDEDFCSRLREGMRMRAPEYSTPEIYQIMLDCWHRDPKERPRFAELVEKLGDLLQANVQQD

Met = molecular target: T17, Met (Homo sapiens, UniProt P08581); assay: AlphaScreen kinase assay, Met; details: read-out: IC50, activity toward kinase Met
T17 construct: P1818.pETN6 BI-PTP MET G1056-G1364-X WT; His6 (N); made in house; host or cells: E. coli (PTP1B co-expressed)
Procedure, shortened: as §1

Fak = molecular target: T18, Fak (Homo sapiens, UniProt Q05397); assay: AlphaScreen kinase assay, Fak; details: read-out: IC50, activity toward kinase Fak
T18 construct: P1358.pFastBacHtb FAK S411-Q686-X; His6 with pFastBacHTb leader (TEV site) (N); made in house; host or cells: Sf9 (baculovirus)

Fms = molecular target: T19, Fms (Homo sapiens, UniProt P07333); assay: AlphaScreen kinase assay, Fms; details: read-out: IC50, activity toward kinase Fms
T19 construct: purchased Upstate Biotechnology

Measured: IC50

Nc1ccc(Sc2c[nH]c3nccc(-c4cccc(CO)c4)c23)cc1 [Compound P-0077]
≤ 10 µM: Stk6 | Kdr | MAPKAPK2

O=C(O)/C=C/c1cccc(-c2cnc3[nH]cc(C(=O)c4cccc(Cl)c4Cl)c3c2)c1 [Compound P-0089]
≤ 10 µM: Ret | B-Raf V600E | Syk | Kdr | Jnk3 | Btk | FGFR1

Cc1ccccc1C(=O)c1c[nH]c2ncc(-c3cccc(N)c3)cc12 [Compound P-0599]
≤ 10 µM: Jnk2 | Ret | Jnk1 | B-Raf V600E | Syk | Jnk3 | Flt4 | FGFR1 | Abl | Src | B-Raf | Kit

O=C(c1cccc(O)c1)c1c[nH]c2ncc(-c3ccsc3)cc12 [Compound P-0448]
≤ 10 µM: Jnk2 | Flt1 | Ret | Jnk1 | B-Raf V600E | Syk | Kdr | Jnk3 | Flt4 | FGFR1 | Abl | Src | B-Raf | Kit

COc1cccc(C(=O)c2c[nH]c3ncc(-c4ccc[nH]4)cc23)c1 [Compound P-0151]
≤ 10 µM: MAPKAPK2

COc1cccc(C(=O)c2c[nH]c3ncc(-c4cccc(/C=C/C(=O)O)c4)cc23)c1 [Compound P-0054]
≤ 10 µM: Met | Jnk2 | Fak | Flt1 | Stk6 | Ret | Jnk1 | B-Raf V600E | Syk | Kdr | Jnk3 | Btk | FGFR1 | Abl | Fms | B-Raf | Kit
